Test results published in patent US9820977B2, “Systemic treatment of blood-sucking and blood-consuming parasites by oral administration of a parasiticidal agent” (priority 2008, dated 2017).
“And” between values parts separate entries of the source, which are not always exact repeats. Equal entries are not always repeated.

Tests used:
[1] = given orally to control fleas; cited from earlier work
ticks = conditions: given topically, imidacloprid alone; cited from earlier work
Rhipicephalus sanguineus = assay: Tick infestation on dogs, oral dosing, tick counts; type: in vivo; conditions: for Attached Dead Day 2 / Dead Attached Day 6 / Dead Free Day 6 / Live Attached Day 6 / Live Free Day 6 / Ticks Removed Day 2 / Mean Efficacy / Efficacy / Dead Ticks / Live Ticks / Comb Count Day 3 Dead / Comb Count Day 3 Live / Hand Count Day 2: dogs; for Mean Efficacy / Efficacy / Comb Count Day 3 Dead / Comb Count Day 3 Live / Hand Count Day 2: ticks; for Efficacy: Day 6
Protocol: Tick Species: Rhipicephalus sanguineus
Number: ˜50 unfed adults per dog per infestation (˜25 male and ˜25 females)
(§1) Species/Strain/Source: Dog/beagles/Stillmeadow, Inc. dog colony
(§2) Body weights were recorded during the pretest period. Six dogs were selected for study, weighed and randomly assigned to two groups of three and infested with either 100 fleas or 50 ticks. For the flea study whose results are shown in Table 3, repeat 100 flea infestations were performed on Days 2 and 5, without additional dosing. For all studies, the Group I dogs served as untreated controls. All animals except those in Group II of the study whose results are reported in Table 1 were dosed orally with the test article in gelatin capsules. The Group II, Table 1 animals received 5 mg of imidacloprid active in a chewable drug delivery vehicle.
(§3) For blood collections, drawn blood was collected into lavender top Vacutainer® tubes. The tubes were centrifuged and plasma was drawn off and frozen at approximately −20° C. pending possible future shipment to the sponsor for analysis of levels of test article in the plasma. Comb and pan counts were conducted as noted in the Tables, following dosing. The number of live fleas and ticks removed during the comb counts was recorded as were, where noted in the Tables, dead tick counts.

Ctenocephalides felis = assay: Flea infestation on dogs, oral dosing, pan and comb counts; type: in vivo; conditions: for Mean Efficacy / 1 hour pan counts / 3 hour pan counts / Comb Count Day 1 / # Live Fleas Removed / 4 hour pan counts / 6 hour pan counts / Efficacy, Comb Count Day 2 (reinfested) / Efficacy, Comb Count Day 5 (reinfested) / Comb Count Day 2 (reinfested) / Comb Count Day 5 (reinfested) / Efficacy, Comb Count Day 1 / Average 1 hour pan counts / Average 3 hour pan counts: dogs; for Mean Efficacy / Efficacy, Comb Count Day 2 (reinfested) / Efficacy, Comb Count Day 5 (reinfested) / Efficacy, Comb Count Day 1: fleas
Protocol: Flea Species: Ctenocephalides felis
Number: ˜100 unfed adults per dog per infestation with a sex ratio of ˜50/50
as §1, §2, §3

[2] = oral 3 mg/kg, individual animals, 3 mg/kg
[3] = oral 10 mg/kg, individual animals, 10 mg/kg
[4] = oral 15 mg/kg, Day 1, group Mean
[5] = oral 15 mg/kg, Day 1, individual animals, 15 mg/kg
[6] = oral 22 mg/kg, Day 1, group Mean
[7] = oral 22 mg/kg, Day 1, individual animals, 22 mg/kg
[8] = oral 30 mg/kg, Day 1, group Mean
[9] = oral 30 mg/kg, Day 1, individual animals, 30 mg/kg
[10] = oral 30 mg/kg, individual animals, 30 mg/kg
[11] = oral 0.5 mg/kg, individual animals, 0.5 mg/kg
[12] = oral 1.0 mg/kg, individual animals, 1 mg/kg
[13] = oral 3.0 mg/kg single dose, group Mean
[14] = oral 3.0 mg/kg single dose, individual animals, 3 mg/kg
[15] = oral 3.0 mg/kg, individual animals, 3 mg/kg
[16] = oral 6.0 mg/kg single dose, group Mean
[17] = oral 6.0 mg/kg, individual animals, 6 mg/kg
[18] = oral 10.0 mg/kg single dose, group Mean
[19] = oral 10.0 mg/kg, individual animals, 10 mg/kg

SMILES: N#Cc1nn(-c2c(Cl)cc(C(F)(F)F)cc2Cl)c(N)c1[S+]([O-])C(F)(F)F (centres unmarked) [Fipronil, 5-amino-1-[2,6-dichloro-4-(trifluoromethyl)phenyl]-4-[(trifluoromethyl)sulfinyl]-1H-pyrazole-3-carbonitrile]
- emesis [1]: known to cause emesis

SMILES: O=[N+]([O-])N=C1NCCN1Cc1ccc(Cl)nc1 [Imidacloprid, 1-[(6-chloro-3-pyridinyl)methyl]-N-nitro-2-imidazolidinimine]
- effect on ticks (ticks): little or no effect on ticks
- Attached Dead Day 2 (Rhipicephalus sanguineus; oral 3 mg/kg, group Mean): 1
- Dead Attached Day 6 (Rhipicephalus sanguineus; oral 3 mg/kg, group Mean): 0
- Dead Free Day 6 (Rhipicephalus sanguineus; oral 3 mg/kg, group Mean): 0.0
- Live Attached Day 6 (Rhipicephalus sanguineus; oral 3 mg/kg, group Mean): 8
- Live Free Day 6 (Rhipicephalus sanguineus; oral 3 mg/kg, group Mean): 0
- Ticks Removed Day 2 (Rhipicephalus sanguineus; oral 3 mg/kg, group Mean): 18
- Dead Free Day 6 (Rhipicephalus sanguineus; oral 3 mg/kg, individual animals): 0
- Attached Dead Day 2 (Rhipicephalus sanguineus; [2]): 1 (2×) and 0
- Dead Attached Day 6 (Rhipicephalus sanguineus; [2]): 2 (2×) and 0
- Live Attached Day 6 (Rhipicephalus sanguineus; [2]): 6 and 4 and 13
- Live Free Day 6 (Rhipicephalus sanguineus; [2]): 1 and 0 (2×)
- Ticks Removed Day 2 (Rhipicephalus sanguineus; [2]): 17 and 8 and 28
- Mean Efficacy (Rhipicephalus sanguineus; oral 3 mg/kg, Day 2): 15.9
- Efficacy (Rhipicephalus sanguineus; oral 3 mg/kg): 61.0
- Attached Dead Day 2 (Rhipicephalus sanguineus; oral 10 mg/kg, group Mean): 3
- Dead Attached Day 6 (Rhipicephalus sanguineus; oral 10 mg/kg, group Mean): 0
- Dead Free Day 6 (Rhipicephalus sanguineus; oral 10 mg/kg, group Mean): 0
- Live Attached Day 6 (Rhipicephalus sanguineus; oral 10 mg/kg, group Mean): 17
- Live Free Day 6 (Rhipicephalus sanguineus; oral 10 mg/kg, group Mean): 0
- Ticks Removed Day 2 (Rhipicephalus sanguineus; oral 10 mg/kg, group Mean): 20
- Dead Free Day 6 (Rhipicephalus sanguineus; oral 10 mg/kg, individual animals): 0
- Attached Dead Day 2 (Rhipicephalus sanguineus; [3]): 2 and 0 and 6
- Dead Attached Day 6 (Rhipicephalus sanguineus; [3]): 1 and 0 (2×)
- Live Attached Day 6 (Rhipicephalus sanguineus; [3]): 14 and 8 and 28
- Live Free Day 6 (Rhipicephalus sanguineus; [3]): 1 and 0 (2×)
- Ticks Removed Day 2 (Rhipicephalus sanguineus; [3]): 16 and 22 and 23
- Mean Efficacy (Rhipicephalus sanguineus; oral 10 mg/kg, Day 2): 3.2
- Efficacy (Rhipicephalus sanguineus; oral 10 mg/kg): 15.3
- Dead Ticks (Rhipicephalus sanguineus; [4]): 1
- Live Ticks (Rhipicephalus sanguineus; [4]): 15
- Dead Ticks (Rhipicephalus sanguineus; [5]): 0 and 3 and 1
- Live Ticks (Rhipicephalus sanguineus; [5]): 33 and 2 and 10
- Mean Efficacy (Rhipicephalus sanguineus; oral 15 mg/kg, Day 1): 48.9
- Dead Ticks (Rhipicephalus sanguineus; [6]): 1
- Live Ticks (Rhipicephalus sanguineus; [6]): 9
- Dead Ticks (Rhipicephalus sanguineus; [7]): 2 and 1 and 0
- Live Ticks (Rhipicephalus sanguineus; [7]): 3 and 12 and 13
- Mean Efficacy (Rhipicephalus sanguineus; oral 22 mg/kg, Day 1): 68.2
- Dead Ticks (Rhipicephalus sanguineus; [8]): 2
- Live Ticks (Rhipicephalus sanguineus; [8]): 11
- Dead Ticks (Rhipicephalus sanguineus; [9]): 7 and 0 (2×)
- Live Ticks (Rhipicephalus sanguineus; [9]): 10 and 12 and 11
- Mean Efficacy (Rhipicephalus sanguineus; oral 30 mg/kg, Day 1): 62.5
- Mean Efficacy (Rhipicephalus sanguineus; oral 30 mg/kg, Day 3): 79.5
- Comb Count Day 3 Dead (Rhipicephalus sanguineus; oral 30 mg/kg, group Mean): 1
- Comb Count Day 3 Live (Rhipicephalus sanguineus; oral 30 mg/kg, group Mean): 5
- Hand Count Day 2 (Rhipicephalus sanguineus; oral 30 mg/kg, group Mean): 9
- Comb Count Day 3 Dead (Rhipicephalus sanguineus; [10]): 0 (2×) and 2
- Comb Count Day 3 Live (Rhipicephalus sanguineus; [10]): 6 and 5 and 4
- Hand Count Day 2 (Rhipicephalus sanguineus; [10]): 8 and 13 and 7
- effective against a tick infestation on treated animals (Rhipicephalus sanguineus; single oral dose 3 mg/kg, within as little as 24-48 hours of administration): at least 60%
- Mean Efficacy (Ctenocephalides felis; oral 0.25 mg/kg, Day 1): 100.0
- 1 hour pan counts (Ctenocephalides felis; oral 0.25 mg/kg, group Mean): 0.0
- 3 hour pan counts (Ctenocephalides felis; oral 0.25 mg/kg, group Mean): 5.5
- 1 hour pan counts (Ctenocephalides felis; oral 0.25 mg/kg, individual animals): 0
- 3 hour pan counts (Ctenocephalides felis; oral 0.25 mg/kg, individual animals, 0.25 mg/kg): 2 and 9
- Comb Count Day 1 (Ctenocephalides felis; oral 0.25 mg/kg, live fleas, group Mean): 0.0
- Comb Count Day 1 (Ctenocephalides felis; oral 0.25 mg/kg, live fleas, individual animals): 0
- # Live Fleas Removed (Ctenocephalides felis; oral 0.5 mg/kg, column after 4 hour pan counts, group Mean): 22.7
- # Live Fleas Removed (Ctenocephalides felis; oral 0.5 mg/kg, column after 4 hour pan counts, individual animals, 0.5 mg/kg): 31 and 2 and 35
- # Live Fleas Removed (Ctenocephalides felis; oral 0.5 mg/kg, column after 6 hour pan counts, group Mean): 0.0
- # Live Fleas Removed (Ctenocephalides felis; oral 0.5 mg/kg, column after 6 hour pan counts, individual animals): 0
- Mean Efficacy (Ctenocephalides felis; oral 0.5 mg/kg): 100.0
- 4 hour pan counts (Ctenocephalides felis; oral 0.5 mg/kg, group Mean): 0.0
- 6 hour pan counts (Ctenocephalides felis; oral 0.5 mg/kg, group Mean): 39.7
- 4 hour pan counts (Ctenocephalides felis; [11]): 5 and 45 and 15
- 6 hour pan counts (Ctenocephalides felis; [11]): 39 and 33 and 47
- # Live Fleas Removed (Ctenocephalides felis; oral 1.0 mg/kg, column after 4 hour pan counts, group Mean): 9.0
- # Live Fleas Removed (Ctenocephalides felis; oral 1.0 mg/kg, column after 4 hour pan counts, individual animals, 1 mg/kg): 4 and 12 and 11
- # Live Fleas Removed (Ctenocephalides felis; oral 1.0 mg/kg, column after 6 hour pan counts, group Mean): 0.0
- # Live Fleas Removed (Ctenocephalides felis; oral 1.0 mg/kg, column after 6 hour pan counts, individual animals): 0
- Mean Efficacy (Ctenocephalides felis; oral 1.0 mg/kg): 100.0
- 4 hour pan counts (Ctenocephalides felis; oral 1.0 mg/kg, group Mean): 41.7
- 6 hour pan counts (Ctenocephalides felis; oral 1.0 mg/kg, group Mean): 44.0
- 4 hour pan counts (Ctenocephalides felis; [12]): 44 and 41 and 40
- 6 hour pan counts (Ctenocephalides felis; [12]): 35 and 44 and 53
- Efficacy, Comb Count Day 2 (reinfested) (Ctenocephalides felis; oral 3.0 mg/kg single dose): 68.1
- Efficacy, Comb Count Day 5 (reinfested) (Ctenocephalides felis; oral 3.0 mg/kg single dose): 42.1
- Comb Count Day 2 (reinfested) (Ctenocephalides felis; [13]): 22.3
- Comb Count Day 5 (reinfested) (Ctenocephalides felis; [13]): 25.3
- Comb Count Day 2 (reinfested) (Ctenocephalides felis; [14]): 15 and 40 and 12
- Comb Count Day 5 (reinfested) (Ctenocephalides felis; [14]): 32 and 80 and 42
- Efficacy, Comb Count Day 1 (Ctenocephalides felis; oral 3.0 mg/kg): 100.0
- Average 1 hour pan counts (Ctenocephalides felis; oral 3.0 mg/kg, group Mean): 1.3
- Average 3 hour pan counts (Ctenocephalides felis; oral 3.0 mg/kg, group Mean): 9.0
- Comb Count Day 1 (Ctenocephalides felis; oral 3.0 mg/kg, group Mean): 0.0
- Comb Count Day 1 (Ctenocephalides felis; oral 3.0 mg/kg, individual animals): 0
- Average 1 hour pan counts (Ctenocephalides felis; [15]): 2 and 1 (2×)
- Average 3 hour pan counts (Ctenocephalides felis; [15]): 7 and 9 and 11
- Efficacy, Comb Count Day 2 (reinfested) (Ctenocephalides felis; oral 6.0 mg/kg single dose): 100.0
- Efficacy, Comb Count Day 5 (reinfested) (Ctenocephalides felis; oral 6.0 mg/kg single dose): 79.3
- Comb Count Day 2 (reinfested) (Ctenocephalides felis; [16]): 0.0
- Comb Count Day 5 (reinfested) (Ctenocephalides felis; [16]): 12.1
- Comb Count Day 2 (reinfested) (Ctenocephalides felis; oral 6.0 mg/kg single dose, individual animals): 0
- Comb Count Day 5 (reinfested) (Ctenocephalides felis; oral 6.0 mg/kg single dose, individual animals, 6 mg/kg): 7 and 17 and 31
- Efficacy, Comb Count Day 1 (Ctenocephalides felis; oral 6.0 mg/kg): 100.0
- Average 1 hour pan counts (Ctenocephalides felis; oral 6.0 mg/kg, group Mean): 7.6
- Average 3 hour pan counts (Ctenocephalides felis; oral 6.0 mg/kg, group Mean): 19.6
- Comb Count Day 1 (Ctenocephalides felis; oral 6.0 mg/kg, group Mean): 0.0
- Comb Count Day 1 (Ctenocephalides felis; oral 6.0 mg/kg, individual animals): 0
- Average 1 hour pan counts (Ctenocephalides felis; [17]): 5 and 6 and 12
- Average 3 hour pan counts (Ctenocephalides felis; [17]): 13 and 22 and 27
- Efficacy, Comb Count Day 2 (reinfested) (Ctenocephalides felis; oral 10.0 mg/kg single dose): 100.0
- Efficacy, Comb Count Day 5 (reinfested) (Ctenocephalides felis; oral 10.0 mg/kg single dose): 97.7
- Comb Count Day 2 (reinfested) (Ctenocephalides felis; [18]): 0.0
- Comb Count Day 5 (reinfested) (Ctenocephalides felis; [18]): 2.0
- Comb Count Day 2 (reinfested) (Ctenocephalides felis; oral 10.0 mg/kg single dose, individual animals): 0
- Comb Count Day 5 (reinfested) (Ctenocephalides felis; oral 10.0 mg/kg single dose, individual animals, 10 mg/kg): 0 and 5 and 1
- Efficacy, Comb Count Day 1 (Ctenocephalides felis; oral 10.0 mg/kg): 100.0
- Average 1 hour pan counts (Ctenocephalides felis; oral 10.0 mg/kg, group Mean): 11.3
- Average 3 hour pan counts (Ctenocephalides felis; oral 10.0 mg/kg, group Mean): 19.0
- Comb Count Day 1 (Ctenocephalides felis; oral 10.0 mg/kg, group Mean): 0.0
- Comb Count Day 1 (Ctenocephalides felis; oral 10.0 mg/kg, individual animals): 0
- Average 1 hour pan counts (Ctenocephalides felis; [19]): 10 and 16 and 8
- Average 3 hour pan counts (Ctenocephalides felis; [19]): 14 and 25 and 18
- efficacious against pre-existing C. felis infestations (Ctenocephalides felis; orally dosed at a rate as low as 0.25 mg/kg): 100%
- effective against a flea infestation on treated animals (Ctenocephalides felis; single oral dose 0.25 mg/kg, within as little as an hour of administration): 100%
